Data on one molecule can be found in BindingDB's records for patent WO2022093856 (AMGEN INC., 2022).

The target in the assay is T1, GTPase KRas [1-169,G12C,C118A] (Homo sapiens, UniProt P01116, C118A/G12C).
T1 construct: 1-169
T1 sequence (P01116 1-169 G12C/C118A): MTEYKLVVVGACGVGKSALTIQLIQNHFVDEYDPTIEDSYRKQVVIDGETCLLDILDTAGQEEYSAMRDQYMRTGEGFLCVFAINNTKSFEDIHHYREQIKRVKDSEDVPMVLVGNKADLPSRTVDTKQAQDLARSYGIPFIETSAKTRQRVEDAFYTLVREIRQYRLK

As a reminder, the IC50 is the concentration at which inhibition is half-maximal. Low readings indicate higher potency, high ones lower potency. `C=CC(=O)N1CC2(CCN(c3nc4c(c(N[C@@H](CC(C)C)Cn5ccnn5)n3)CCC(C)(C)C4)C2)C1` [WO2022093856, Example 1-47] yielded an IC50 of 822 nM. This lies in the sub-micromolar range.
